Measured values from US5736629A, “Herbicide resistant rice” (priority 1997, dated 1998).

Key:
[1] = test system: Resistant F3 Hybrid of ATCC 75295 and ATCC 97523; assay: Greenhouse test of plant vigor after imazethapyr, resistant F3 hybrid; assay type: in vivo, rice; details: for Rating of rice plant vigor: 36 days after treatment at 2-3 leaf stage, 10-point scale, 0 = dead plant, 10 = no visible injury
Source text: (§1) In the greenhouse tests, pots were planted with F3 seed from crosses between the two lines. Each pot was planted with seed from a single panicle from a single plant; each pot was therefore the equivalent of a headrow. A total of 140 pots were planted in this manner, along with 40 pots of various non-resistant genotypes for comparison. Imazethapyr was applied at the 2-3 leaf stage two weeks after planting, at rates equivalent to 0.063 lb. active ingredient (a.i.) per acre, 0.125 lb. a.i./acre, and 0.313 lb. a.i./acre.
Because the material being tested was an F3 population, with genes still segregating, individual plants had different levels of resistance. At the time this patent application is being filed, there had not been sufficient time to raise rice lines that were demonstrably homozygous for both resistance mechanisms. Raising such demonstrably homozygous lines will be routine for one of ordinary skill in the art, but will require additional time.
(§2) Table 2 summarizes measurements taken 36 days after spraying rice at the 2-3 leaf stage of development.

[2] = test system: other anther-culture progeny rows of Mercury//Lemont/Mercury rice; assay: Open-field spray screen of anther-culture progeny rows, all other rows; assay type: in vivo
Procedure: This resistant line was derived by conducting anther culture on the F2 progeny of a backcross made by pollinating a rice plant of the variety "Lemont" with pollen from the rice variety "Mercury," followed by a backcross using pollen from this hybrid to pollinate a plant of the variety "Mercury." The resulting backcross is described as Mercury//Lemont/Mercury. Anthers collected from a plant resulting from this backcross were plated on callus induction medium, and the resulting calli were transferred to plant regeneration media. The procedures used were generally as described in Croughan and Chu, "Rice (Oryza saliva L.): Establishment of Callus Cultures and the Regeneration of Plants" in Bajaj (Ed.), "Biotechnology in Agriculture and Forestry," pp. 19-37 (1991). Several regenerated plants were produced and grown to maturity in a greenhouse to produce seed. Progeny seed were planted in an open field, and herbicide applications were made using a garden tractor-mounted spray rig.
A set of 4,193 progeny rows derived from this anther culture procedure were planted in an open field, and were sprayed with 4 ounces per acre of Pursuit (1.00 ounce active ingredient imazethapyr per acre) at the four-leaf stage of seedling development. […]

[3] = target: T1, AHAS (acetohydroxyacid synthase) in enzyme extracts from normal rice variety Mercury (Oryza sativa subsp. japonica, UniProt Q6K2E8); assay: AHAS enzyme assay, extract from rice variety Mercury; assay type: biochemical
T1 construct: 40.0 grams (fresh weight) of tissue were extracted in the same manner for each of the three varieties; from tissue; host or cells: stem tissue of greenhouse-grown rice seedlings, variety Mercury (leaf blades removed)
T1 sequence (Q6K2E8 40-644 limits assumed): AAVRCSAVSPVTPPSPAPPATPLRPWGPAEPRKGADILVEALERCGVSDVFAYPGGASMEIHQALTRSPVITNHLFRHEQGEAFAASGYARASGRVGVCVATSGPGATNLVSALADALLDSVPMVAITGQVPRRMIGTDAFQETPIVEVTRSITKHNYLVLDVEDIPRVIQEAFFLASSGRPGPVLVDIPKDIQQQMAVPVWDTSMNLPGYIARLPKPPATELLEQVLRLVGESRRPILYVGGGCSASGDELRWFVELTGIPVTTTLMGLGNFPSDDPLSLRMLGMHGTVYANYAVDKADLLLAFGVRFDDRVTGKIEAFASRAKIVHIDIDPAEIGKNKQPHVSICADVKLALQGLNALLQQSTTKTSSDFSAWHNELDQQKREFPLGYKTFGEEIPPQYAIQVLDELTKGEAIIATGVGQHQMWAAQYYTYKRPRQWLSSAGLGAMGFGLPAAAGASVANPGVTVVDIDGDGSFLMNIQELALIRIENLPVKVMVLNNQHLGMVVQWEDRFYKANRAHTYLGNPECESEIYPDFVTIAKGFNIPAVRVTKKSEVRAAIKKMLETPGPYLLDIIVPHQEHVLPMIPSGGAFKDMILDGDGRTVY
Source text: The herbicide resistance of the AHAS enzyme from the ATCC 75295 rice line was compared to the resistance of the AHAS enzymes from the rice varieties "Lemont" and "Mercury," the varieties that were the ancestors of this rice line. The procedures used to assay the activity of acetohydroxyacid synthase were substantially as described in B. K. Singh et al., "Assay of Acetohydroxyacid Synthase," Analytical Biochemistry, vol. 171, pp. 173-179 (1988), except as noted. In the first paragraph of Singh's "Materials and Methods," instead of corn suspension culture cells, stem tissues from greenhouse-grown rice seedlings at the four-leaf stage of development were used. Leaf blades were removed, and 40.0 grams (fresh weight) of tissue were extracted in the same manner for each of the three varieties. […] Pursuit herbicide (imazethapyr) was included in the "standard reaction mixture" for the AHAS assay in the concentrations indicated in Table 1 below. Checks were made of direct acetoin formation during the enzyme assay. Each treatment was conducted with two replicates.

[4] = test system: rice line ATCC 75295 (first resistance mechanism only); assay: Greenhouse test of plant vigor after imazethapyr, ATCC 75295; assay type: in vivo; details: for Rating of rice plant vigor: 36 days after treatment at 2-3 leaf stage, 10-point scale, 0 = dead plant, 10 = no visible injury
Source text: as §1, §2

CCc1cnc(C2=NC(C)(C(C)C)C(=O)N2)c(C(=O)O)c1 (racemic) [imazethapyr, (±)-2-[4,5-dihydro-4-methyl-4-(1-methylethyl)-5-oxo-1H-imidazol-2-yl]-5-ethyl-3-pyridinecarboxylic acid]
Rating of rice plant vigor ([1]; 0.063 lb. a.i./acre): 10 | Rating of rice plant vigor ([1]; 0.125 lb. a.i./acre): 10 | Rating of rice plant vigor ([1]; 0.313 lb. a.i./acre): 10 | Tolerance (in words) ([1]; F3 plants that inherited both resistance mechanisms, up to 0.313 lb. a.i. per acre): tolerance to all levels of herbicide tested | Visible injury (in words) ([1]; plants with both resistance mechanisms, 0.313 pounds active ingredient per acre, 36 days after treatment): no visible injury | Time to visible resumption of growth after herbicide application ([1]; resistant F3 plants, greenhouse test): about a week | Symptoms (in words) ([2]; 4 ounces per acre Pursuit (1.00 ounce a.i. per acre), four-leaf stage, open field): injured or killed | Symptoms (in words) ([2]; second spray 8 ounces/acre Pursuit (2.00 ounce a.i. per acre), four weeks after the initial treatment, rows that survived the initial spraying): lethal | activity at 0.1 µM ([3]; imazethapyr 0.1 μM): 100% | activity at 1 µM ([3]; imazethapyr 1 μM): 89% | activity at 10 µM ([3]; imazethapyr 10 μM): 64% | activity at 100 µM ([3]; imazethapyr 100 μM): 62% | Rating of rice plant vigor ([4]; 0.063 lb. a.i./acre): 0.61 ± 0.03 | Rating of rice plant vigor ([4]; 0.125 lb. a.i./acre): 0.81 ± 0.45 | Rating of rice plant vigor ([4]; 0.313 lb. a.i./acre): about 0.6 | Rating of rice plant vigor ([4]; 0.313 lb. a.i./acre, listed as Imazethapyr): 0.55 ± 0.55 | Time to visible resumption of growth after herbicide application ([4]; ATCC 75295 plants, greenhouse test): about three weeks | Visible injury (in words) ([4]; plants with only the first resistance mechanism, 0.313 lb a.i./acre, 36 days after treatment): substantial injury
